Results on 28 molecules are retold here after patent US20260374754A1, “N-((ISOQUINOLIN-6-YL)METHYL)-1H-PYRAZOLE-4-CARBOXAMIDE DERIVATIVES AS PLASMA KALLIKREIN INHIBITORS FOR THE TREATMENT OF HEREDITARY ANGIODEMA” (Takeda Pharmaceutical Company Limited, priority 2022, published 2026).

The term EC50 denotes the concentration giving half of the maximal effect.

The assay addresses human activated kallikrein enzyme (Homo sapiens, UniProt P03952). Nature of the assay: Inhibition of human activated plasma kallikrein, fluorogenic PFR-AMC substrate, 500 pM enzyme format. It counts as biochemical. The note with it: 500 pM activated kallikrein; 300 μM PFR-AMC; 30 min preincubation; 10 min room temperature; pH 7.5; read-out: Primary Dose Response Assay: Average EC50. The method, then:
Compounds were evaluated for inhibition of the human activated kallikrein enzyme in two formats of an assay employing a fluorogenic peptide substrate. In one assay format, the concentrations of reagents were as follows: 20 mM Tris pH 7.5, 1 mM EDTA, 150 mM sodium chloride, 0.1% PEG-400, 0.1% Triton X-100, 500 pM activated kallikrein enzyme, 300 μM Pro-Phe-Arg-7-amido-4-methylcoumarin (PFR-AMC) substrate. Prior to reaction initiation with substrate, enzyme and inhibitors were preincubated for 30 min at room temperature. After initiation with substrate, reactions were incubated for 10 min at room temperature and fluorescence emission at 460 nm from 380 nm excitation measured with a microplate reader. In another assay format, the concentrations of reagents were as follows: 20 mM Tris pH 7.5, 1 mM EDTA, 150 mM sodium chloride, 0.1% PEG-400, 0.1% Triton X-100, 5 pM activated kallikrein enzyme, 300 uM PFR-AMC substrate. Prior to reaction initiation with substrate, enzyme and inhibitors were preincubated for 30 min at room temperature. After initiation with substrate, reactions were incubated for 18 hr at room temperature and fluorescence emission at 460 nm from 380 nm excitation measured with a microplate reader.
Table 35 provides the results of the assay in the format with 500 pM activated kallikrein assay.

Chain of human activated kallikrein enzyme (P03952 391-638 limits assumed): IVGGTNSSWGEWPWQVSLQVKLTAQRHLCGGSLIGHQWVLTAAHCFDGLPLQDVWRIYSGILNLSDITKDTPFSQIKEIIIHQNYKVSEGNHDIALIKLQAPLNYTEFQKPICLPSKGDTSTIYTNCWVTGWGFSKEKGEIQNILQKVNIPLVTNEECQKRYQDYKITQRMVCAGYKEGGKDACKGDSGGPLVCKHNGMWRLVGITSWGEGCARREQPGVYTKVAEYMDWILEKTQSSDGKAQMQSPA
Chain of human activated kallikrein enzyme (P03952 20-390 partner limits assumed): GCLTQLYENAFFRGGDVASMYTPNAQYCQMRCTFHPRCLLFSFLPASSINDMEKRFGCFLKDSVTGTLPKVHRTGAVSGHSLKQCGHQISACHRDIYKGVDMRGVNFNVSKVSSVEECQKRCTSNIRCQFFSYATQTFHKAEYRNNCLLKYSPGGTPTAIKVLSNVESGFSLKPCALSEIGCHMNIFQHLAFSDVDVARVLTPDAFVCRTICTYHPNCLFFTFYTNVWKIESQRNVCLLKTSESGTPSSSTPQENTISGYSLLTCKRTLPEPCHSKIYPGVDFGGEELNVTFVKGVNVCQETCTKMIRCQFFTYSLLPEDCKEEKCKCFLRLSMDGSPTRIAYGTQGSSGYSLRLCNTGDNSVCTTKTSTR

As to `Cc1ccc2nc(C(C)n3cc(C(=O)NCc4c(C)cc5c(N)nccc5c4C)cn3)cn2c1` (single isomer, unassigned) [Example 11, (R*)-N-((1-amino-5,7-dimethylisoquinolin-6-yl)methyl)-1-(1-(6-methylimidazo[1,2-a]pyridin-2-yl)ethyl)-1H-pyrazole-4-carboxamide], the EC50 is less than 1 nM. Consider `Cc1ccc2nc(C(C)n3cc(C(=O)NCc4c(C)cc5c(N)nccc5c4C)cn3)cn2c1` (single isomer, unassigned) [Example 12, (S*)-N-((1-amino-5,7-dimethylisoquinolin-6-yl)methyl)-1-(1-(6-methylimidazo[1,2-a]pyridin-2-yl)ethyl)-1H-pyrazole-4-carboxamide], for which the EC50 is less than 1 nM. As to `Cc1cc2c(N)nccc2c(C)c1CNc1cc(OC(C)c2ccc(Cn3cccn3)cc2)cnn1` (single isomer, unassigned) [Example 277, (S*)-6-(((5-(1-(4-((1H-pyrazol-1-yl)methyl)phenyl)ethoxy)pyridazin-3-yl)amino)methyl)-5,7-dimethylisoquinolin-1-amine], the EC50 fell in the range of 10 to 100 nM. Turning to `Cc1cc2c(N)nccc2c(C)c1CNC(=O)c1cnn(CC(=O)N(C)c2ccccc2)c1` [Compound 155], the EC50 was greater than 1000 nM. As to `Cc1cc(CNc2cc(NCc3c(C)cc4c(N)nccc4c3C)ncn2)cc(C)c1CC(=O)N(C)C` [Compound 360], the 50% effective concentration (EC50) was less than 1 nM. For `Cc1ccc2cnc(Cn3cc(C(=O)NCc4c(C)cc5c(N)nccc5c4C)cn3)cc2c1` [Example 1, N-((1-amino-5,7-dimethylisoquinolin-6-yl)methyl)-1-((6-methylisoquinolin-3-yl)methyl)-1H-pyrazole-4-carboxamide], the EC50 was less than 1 nM.

With `Cc1cc(Cn2cc(C(=O)NCc3c(C)cc4c(N)nccc4c3C)cn2)ccc1C1CC1` [Example 2, N-((1-amino-5,7-dimethylisoquinolin-6-yl)methyl)-1-(4-cyclopropyl-3-methylbenzyl)-1H-pyrazole-4-carboxamide], the EC50 is 1 to 10 nM.

With `Cc1ccc2nc(Cn3cc(C(=O)NCc4c(C)cc5c(N(C(=O)OC(C)C)C(=O)OC(C)C)nccc5c4C)cn3)cn2c1` [Example 3, diisopropyl (5,7-dimethyl-6-((1-((6-methylimidazo[1,2-a]pyridin-2-yl)methyl)-1H-pyrazole-4-carboxamido)methyl)isoquinolin-1-yl)iminodicarbonate], the concentration giving a half-maximal response (EC50) was in the range of 100 to 1000 nM. The value for `Cc1ccc2nc(Cn3cc(C(=O)NCc4c(C)cc5c(N(C(=O)OCc6ccccc6)C(=O)OCc6ccccc6)nccc5c4C)cn3)cn2c1` [Example 4, benzyl ((benzyloxy)carbonyl)(5,7-dimethyl-6-((1-((6-methylimidazo[1,2-a]pyridin-2-yl)methyl)-1H-pyrazole-4-carboxamido)methyl)isoquinolin-1-yl)carbamate] was greater than 1000 nM; that for `Cc1ccc2nc(Cn3cc(C(=O)NCc4c(C)cc5c(NC(=O)OCC(C)C)nccc5c4C)cn3)cn2c1` [Example 5, isobutyl (5,7-dimethyl-6-((1-((6-methylimidazo[1,2-a]pyridin-2-yl)methyl)-1H-pyrazole-4-carboxamido)methyl)isoquinolin-1-yl)carbamate] was 10 to 100 nM. The value for `Cc1ccc2nc(Cn3cc(C(=O)NCc4c(C)cc5c(NC(=O)OC(C)C)nccc5c4C)cn3)cn2c1` [Example 6, isopropyl (5,7-dimethyl-6-((1-((6-methylimidazo[1,2-a]pyridin-2-yl)methyl)-1H-pyrazole-4-carboxamido)methyl)isoquinolin-1-yl)carbamate] was 10 to 100 nM. Turning to `Cc1ccc2nc(Cn3cc(C(=O)NCc4c(C)cc5c(NC(=O)OCc6ccccc6)nccc5c4C)cn3)cn2c1` [Example 7, benzyl (5,7-dimethyl-6-((1-((6-methylimidazo[1,2-a]pyridin-2-yl)methyl)-1H-pyrazole-4-carboxamido)methyl)isoquinolin-1-yl)carbamate], the EC50 lay in the range of 10 to 100 nM. With `CC(=O)Nc1nccc2c(C)c(CNC(=O)c3cnn(Cc4cn5cc(C)ccc5n4)c3)c(C)cc12` [Example 8, N-((1-acetamido-5,7-dimethylisoquinolin-6-yl)methyl)-1-((6-methylimidazo[1,2-a]pyridin-2-yl)methyl)-1H-pyrazole-4-carboxamide], the EC50 is 10 to 100 nM. The figure for `CCOC(=O)Nc1nccc2c(C)c(CNC(=O)c3cnn(Cc4cn5cc(C)ccc5n4)c3)c(C)cc12` [Example 9, ethyl (5,7-dimethyl-6-((1-((6-methylimidazo[1,2-a]pyridin-2-yl)methyl)-1H-pyrazole-4-carboxamido)methyl)isoquinolin-1-yl)carbamate] is 1 to 10 nM. `Cc1ccc2nc(Cn3cc(C(=O)NCc4c(C)cc5c(N)nccc5c4C)cn3)cn2c1` [Example 10, N-((1-amino-5,7-dimethylisoquinolin-6-yl)methyl)-1-((6-methylimidazo[1,2-a]pyridin-2-yl)methyl)-1H-pyrazole-4-carboxamide]: the EC50 was less than 1 nM. Turning to `Cc1ccc2nc(C(C)n3cc(C(=O)NCc4c(C)cc5c(N)nccc5c4C)cn3)cn2c1` (stereo not shown) [Example 13, N-((1-amino-5,7-dimethylisoquinolin-6-yl)methyl)-1-(1-(6-methylimidazo[1,2-a]pyridin-2-yl)ethyl)-1H-pyrazole-4-carboxamide], the EC50 is less than 1 nM. With `COC(=O)C(c1cn2cc(C)ccc2n1)n1cc(C(=O)NCc2c(C)cc3c(N)nccc3c2C)cn1` (stereo not shown) [Example 14, methyl 2-(4-(((1-amino-5,7-dimethylisoquinolin-6-yl)methyl)carbamoyl)-1H-pyrazol-1-yl)-2-(6-methylimidazo[1,2-a]pyridin-2-yl)acetate], the EC50 lay in the range of 100 to 1000 nM. The figure for `Cc1ccc2nc(Cn3cc(C(=O)NCc4c(C)cc5c(N)nccc5c4C)cn3)nn2c1` [Example 15, N-((1-amino-5,7-dimethylisoquinolin-6-yl)methyl)-1-((6-methyl-[1,2,4]triazolo[1,5-a]pyridin-2-yl)methyl)-1H-pyrazole-4-carboxamide] is less than 1 nM; for `Cc1ncc2ccc(Cn3cc(C(=O)NCc4c(C)cc5c(N)nccc5c4C)cn3)cc2n1` [Example 16, N-((1-amino-5,7-dimethylisoquinolin-6-yl)methyl)-1-((2-methylquinazolin-7-yl)methyl)-1H-pyrazole-4-carboxamide] it is 1 to 10 nM; for `Cc1cc2c(N)nccc2c(C)c1CNC(=O)c1cnn(Cc2ccc(Oc3cc(Cl)cn(C)c3=O)cc2)c1` [Example 17, N-((1-amino-5,7-dimethylisoquinolin-6-yl)methyl)-1-(4-((5-chloro-1-methyl-2-oxo-1,2-dihydropyridin-3-yl)oxy)benzyl)-1H-pyrazole-4-carboxamide] it is less than 1 nM. As to `Cc1cc2c(N)nccc2c(C)c1CNC(=O)c1cnn(Cc2ccc(Oc3cccn(C)c3=O)cc2)c1` [Example 18, N-((1-amino-5,7-dimethylisoquinolin-6-yl)methyl)-1-(4-((1-methyl-2-oxo-1,2-dihydropyridin-3-yl)oxy)benzyl)-1H-pyrazole-4-carboxamide], the half-maximal effective concentration (EC50) is less than 1 nM. For `CC(=O)NC1(c2ccc(Cn3cc(C(=O)NCc4c(C)cc5c(N)nccc5c4C)cn3)cc2)CC1` [Example 19, 1-(4-(1-acetamidocyclopropyl)benzyl)-N-((1-amino-5,7-dimethylisoquinolin-6-yl)methyl)-1H-pyrazole-4-carboxamide], the EC50 is less than 1 nM. The figure for `Cc1cc(Cn2cc(C(=O)NCc3c(C)cc4c(N)nccc4c3C)cn2)cc(C)c1CC(=O)N(C)C` [Example 20, N-((1-amino-5,7-dimethylisoquinolin-6-yl)methyl)-1-(4-(2-(dimethylamino)-2-oxoethyl)-3,5-dimethylbenzyl)-1H-pyrazole-4-carboxamide] is less than 1 nM; for `Cc1cc2c(N)nccc2c(C)c1CNC(=O)c1cnn(Cc2ccc(N(C)C(=O)N3CCCC3)cc2)c1` [Example 21, N-((1-amino-5,7-dimethylisoquinolin-6-yl)methyl)-1-(4-(N-methylpyrrolidine-1-carboxamido)benzyl)-1H-pyrazole-4-carboxamide] it is 1 to 10 nM; for `Cc1cc2c(N)nccc2c(C)c1CNC(=O)c1cnn(Cc2ccc(N(C)C(=O)N(C)C)cc2)c1` [Example 22, N-((1-amino-5,7-dimethylisoquinolin-6-yl)methyl)-1-(4-(1,3,3-trimethylureido)benzyl)-1H-pyrazole-4-carboxamide] it is 1 to 10 nM. The value for `Cc1cc2c(N)nccc2c(C)c1CNC(=O)c1cnn(Cc2ccc(C(F)(F)C(=O)N(C)C)cc2)c1` [Example 23, N-((1-amino-5,7-dimethylisoquinolin-6-yl)methyl)-1-(4-(2-(dimethylamino)-1,1-difluoro-2-oxoethyl)benzyl)-1H-pyrazole-4-carboxamide] was 10 to 100 nM; that for `Cc1cnc2ccc(Cn3cc(C(=O)NCc4c(C)cc5c(N)nccc5c4C)cn3)cc2n1` [Example 24, N-((1-amino-5,7-dimethylisoquinolin-6-yl)methyl)-1-((3-methylquinoxalin-6-yl)methyl)-1H-pyrazole-4-carboxamide] was less than 1 nM; that for `CCOC(=O)N(C)c1ccc(Cn2cc(C(=O)NCc3c(C)cc4c(N)nccc4c3C)cn2)cc1` [Example 25, ethyl (4-((4-(((1-amino-5,7-dimethylisoquinolin-6-yl)methyl)carbamoyl)-1H-pyrazol-1-yl)methyl)phenyl)(methyl)carbamate] was 1 to 10 nM.
